Reference: patent publication US20240350489A1, “LOU064 FOR TREATING MULTIPLE SCLEROSIS” (NOVARTIS AG, priority 2021, published 2024)
“Also recorded” adds a separate entry of the source.

Assays:
[1] = system: MOG-specific immunoglobulin responses; assay: MOG-specific immunoglobulin responses in serum, HumanMOG EAE; assay type: in vivo, mouse; settings: oral b.i.d. treatment
Source text: In the HumanMOG-induced EAE model the (auto)antibody response is weakly pathogenic.

[2] = system: splenocytes and draining lymph node cells; assay: Ex vivo MOG-induced recall proliferation, HumanMOG EAE; design: species or system mouse; settings: dosed in vivo
Description: Prophylactic LOU064 (b.i.d.) treatment during HumanMOG EAE inhibits (auto)antigen recall proliferation. Isolated splenocytes and draining lymph node cells were incubated in vitro with HumanMOG for 48 hours. Antigen-specific proliferation was determined by [^3H]-thymidine incorporation. […] Group sizes n=5 per treatment.
Ex vivo MOG-induced recall proliferation responses were studied using isolated splenocytes and draining lymph node cells collected on day 8 post-immunization. […] In contrast, plate-bound anti-CD3/CD28 polyclonal stimulation of lymph node cells was unaffected by the in vivo treatment.

[3] = system: B-cell and CD4+ T-cell populations; assay: Ex vivo analysis of B-cell and CD4+ T-cell populations, HumanMOG EAE; design: species or system mouse; settings: dosed in vivo b.i.d.
Source text: Prophylactic LOU064 (b.i.d.) treatment during HumanMOG EAE reduces Th17 cells. […] Group sizes n=5 per treatment. Statistical significance (ANOVA with Dunnett's test) is shown as *p<0.05.

[4] = system: RatMOG-induced EAE; assay: RatMOG-induced EAE, b.i.d. dosing until study end; assay type: in vivo
Description: Dosing of LOU064 was initiated 4 hours prior to MOG/CFA immunization and continued twice daily until study end.

[5] = Passive permeability, canine P-gp knockout MDCK cell monolayers (MDCK-LE V2); assay type: in vitro ADME; settings: dog, MDCK; 10 μM apical, two hours incubation
Description: (§1) Passive permeability measurement using canine P-gp knockout MDCK cell monolayers (MDCK-LE V2)
(§2) A cell-based assay was used to assess the passive permeability of drug candidates in the context of gastro-intestinal absorption. A MDCK cell line where the endogenous canine Mdr1 (cMdr1) gene encoding P-gp has been knocked out is grown to form monolayers on a 96-well Transwell plate. Compounds are loaded in cassettes of three at a concentration of 10 μM each to the apical compartment and following a period of two hours incubation the amount of compound appearing in the basal chamber is quantitated by tandem mass spectrometry.
(§3) In particular, a MDCK cell line was generated by knocking-out the endogenous canine Mdr1 (cMdr1) gene. A subclone of this cell line was used to relate passive permeability to the fraction absorbed in human intestine using a set of 37 commercial compounds for which the fraction absorbed was known. The assay is able to estimate the fraction absorbed in human based on the Papp measured in the assay.
(§4) Samples were subject to RapidFire/MS/MS analysis and LC/MS/MS analysis. […]

[6] = system: canine P-gp knockout MDCK cell monolayers (MDCK-LE V2); assay: as above; assay type: in vitro ADME; settings: MDCK trans-well assay
Description: as §1, §2, §3, §4

[7] = single/multiple doses 0.5 mg to 600 mg up to 18 days; 100 and 200 mg b.i.d.; cited from earlier work
[8] = biological target: T1, BTK (Rattus norvegicus, UniProt Q5S255); settings: female rats, single oral dose of 3 mg/kg; cited from earlier work
T1 construct: from tissue; host or cells: blood and spleen of female rats
T1 sequence (Q5S255 1-660): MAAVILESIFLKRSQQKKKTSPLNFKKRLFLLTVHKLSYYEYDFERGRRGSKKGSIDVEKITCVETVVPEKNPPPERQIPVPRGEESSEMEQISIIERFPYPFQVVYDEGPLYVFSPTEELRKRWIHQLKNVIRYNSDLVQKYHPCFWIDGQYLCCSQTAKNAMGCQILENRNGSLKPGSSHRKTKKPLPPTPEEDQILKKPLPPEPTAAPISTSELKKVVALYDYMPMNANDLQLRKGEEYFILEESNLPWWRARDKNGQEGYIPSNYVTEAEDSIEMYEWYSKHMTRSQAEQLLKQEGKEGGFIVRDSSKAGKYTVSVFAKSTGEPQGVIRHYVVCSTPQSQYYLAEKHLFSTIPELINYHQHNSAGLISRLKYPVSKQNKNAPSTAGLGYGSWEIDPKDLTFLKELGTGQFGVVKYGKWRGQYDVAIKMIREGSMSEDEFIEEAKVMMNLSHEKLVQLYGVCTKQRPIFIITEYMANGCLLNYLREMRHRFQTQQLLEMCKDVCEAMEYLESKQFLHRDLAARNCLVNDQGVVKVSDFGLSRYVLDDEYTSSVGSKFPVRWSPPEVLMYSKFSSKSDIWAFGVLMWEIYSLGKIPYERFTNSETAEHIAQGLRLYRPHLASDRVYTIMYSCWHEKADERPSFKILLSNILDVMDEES

[9] = 52-week open label extension study in CSU subjects, safety; settings: for safety signals / safety profile: 100 mg b.i.d. open-label, interim analyses
Description: In a 52-week open label extension study to evaluate the long-term safety and tolerability of LOU064 in eligible subjects with CSU who participated in the Phase 2b study the dose used was 100 mg b.i.d.

[10] = 100 mg B.I.D., N = 100, interim cut off 31 Aug. 2020
[11] = ES, 100 mg b.i.d., N = 183, listed as remibrutinib

C=CC(=O)N(C)CCOc1c(N)ncnc1-c1cc(F)cc(NC(=O)c2ccc(C3CC3)cc2F)c1C [LOU064, N-(3-(6-amino-5-(2-(N-methylacrylamido)ethoxy)pyrimidin-4-yl)-5-fluoro-2-methylphenyl)-4-cyclopropyl-2-fluorobenzamide]
MOG-specific IgG2c [1]: No change was detected
MOG-specific IgM and IgG responses in serum [1]: significantly reduced
MOG-specific proliferation ([3H]-thymidine incorporation) ([2]; cells incubated with HumanMOG 48 hours): dose-dependent reduction in MOG-specific proliferation
polyclonal stimulation with anti-CD3/CD28 ([2]; lymph node cells): unchanged
Th1 and Tregs [3]: unchanged; also recorded: No changes were observed
Th17 (IL-17+) cells [3]: reduced; also recorded: significant reduction
frequencies of B-cell populations [3]: no significant changes in total B-cell populations
total CD4+ T-cell population [3]: unchanged
tolerability ([4]; 30 mg/kg b.i.d.): well tolerated in all mice
cumulative disease burden ([4]; 30 mg/kg b.i.d., p value=0.013): significantly reduced
disease incidence and time of EAE onset ([4]; 30 mg/kg b.i.d., p value=0.018): reduction in the incidence of EAE and a delayed onset; also recorded: significantly reduced disease incidence
clinical symptoms of EAE / EAE scores ([4]; 30 mg/kg p.o. b.i.d.): inhibited inflammation-induced clinical symptoms of EAE and cachexia; also recorded: efficacious at reducing the severity of RatMOG-induced EAE; also recorded: improvement in EAE scores
daily body weight changes (cachexia) ([4]; 30 mg/kg p.o. b.i.d.): significantly reduced
Papp A→B at 2 h, 10 μM [5]: 37.3 ×10⁻⁶ cm/s
recovery [6]: high recovery
short-term safety [7]: has been shown in Phase I clinical studies
BTK occupancy in blood and spleen [8]: full BTK occupancy
Death [9, 10]: 0 n
Discontinued study due to an SAE(s) [9, 10]: 0 n
safety signals / safety profile [9]: No safety signal has been observed; also recorded: no safety signals have been observed; also recorded: well tolerated and with a favorable safety profile
safety signals / safety profile ([9]; listed as Remibrutinib): no new safety signals
dose-limiting liver enzyme elevations and other off-target-effects ([9]; 100 mg b.i.d. over an extended period of time): does not induce any dose-limiting liver enzyme elevations and other off-target-effects
AE Headache (PT) ([9]; 100 mg b.i.d., N = 100 interim): 6%
AE Infections and infestations (SOC) ([9]; 100 mg b.i.d., N = 100 interim): 14%
AE Skin and subcutaneous tissue disorders (SOC) ([9]; 100 mg b.i.d., N = 100 interim): 13%
AE diarrhea (PT) ([9]; 100 mg b.i.d., N = 100 interim): 4%
AE dizziness (PT) ([9]; 100 mg b.i.d., N = 100 interim): 3%
AE gastroenteritis (PT) ([9]; 100 mg b.i.d., N = 100 interim): 3%
bleeding events or events under SOC Blood and lymphatic system disorders ([9]; 100 mg b.i.d., N = 100 interim): no bleeding events
ECG findings or QT of >500 ms ([9]; ES and CS, any patient): no significant ECG findings or QT of >500 ms noted in any patient
AE Headache (PT) [9, 11]: 6.6%
AE Infections and infestations (SOC) [9, 11]: 23.0%
AE Skin and subcutaneous tissue disorders (SOC) [9, 11]: 17.5%
Discontinued study treatment due to AE(s) [9, 11]: 6 n
Patients with SAE(s) [9, 11]: 4 n
AE Skin and subcutaneous tissue disorders (SOC) ([9]; ES, 100 mg b.i.d., N=183): 32 n
Incidence of AESI bleeding ([9]; ES, 100 mg b.i.d., N=183): 4.4%
Incidence of AESI cytopenias ([9]; ES, 100 mg b.i.d., N=183): 0.5%
Incidence of AESI infections ([9]; ES, 100 mg b.i.d., N=183): 23%
deaths ([9]; ES, 100 mg b.i.d., N=183): no deaths
patients with isolated ALT>3xULN ([9]; ES, N=183, normalized within 4 weeks): 1 patient
